The text below walks through data of patent US6645954B2, “Compositions comprising ethisterone or its derivatives” (Multimed Limited, priority 1998, dated 2003).

Several values for one entry are separate records, joined by “and”; a condition that tells them apart may be missing. Equal values may be shown once.

Series [1] can be described thus: Andropause CheckList score (ACL) and clinical symptom response in hypogonadal men. It counts as in vivo, human. Conditions: for clinical response / symptoms: Example 2, person, pre-treatment ACL 25, successive treatments. On the procedure:
ACL—Andropause CheckList Score—A questionnaire rating the incidence and severity of symptoms of the andropause. The greater the checklist score, the more severe are the symptoms.
These consecutive referrals were evaluated at interview by administering a questionnaire, the “Andropause Check List” which rated each symptom on a five point rating scale as being absent (0), slight (1), moderate (2), severe (3) or total (4). It also included questions on the monthly frequency of intercourse and masturbation. A detailed history was taken focussing especially on factors which might affect testicular function and this was entered onto a computerised database (Microsoft Access).
(§1) During treatment, the severity of symptoms and level of sexual activity on the Andropause Check List score was reassessed at three monthly intervals, as well as weight, blood pressure, resting pulse rate, full endocrine, biochemical and haematological profiles, and in some cases ultrasound studies of the prostate and testes. In all cases, subjects were used as their own controls in the comparison of the effects of treatment. All results were stored in a specially designed Microsoft Access database, and […] analyes were carried out using the SPSS version 9 programme.

A further series deals with dihydrotestosterone. As to the kind of experiment: Dihydrotestosterone (DHT) in fasting blood. It is filed as in vivo, human. As to conditions: Clinical trial; treatment alone, without Danazol. An excerpt:
(§2) Fasting blood samples were taken between 9 and 12 am to minimize the effects of diurnal variation, and analyses included the standard full biochemical, lipid and haematology profiles, prostate specific antigen and routine urine analysis. The endocrine assessment included follicle stimulating hormone (FSH) and luteinizing hormone (LH) prolactin, total testosterone (TT), dihydrotestosterone (DHT), sex hormone binding globulin (SHBG), oestradiol (E2) cortisol and either total thyroxine or TSH.

The test system of another series is Oestradiol. As to the kind of experiment: Oestradiol (E2) in fasting blood. It counts as in vivo, human.
Text: as §2

The subject of series [2] is Follicle Stimulating Hormone. As to the kind of experiment: Follicle Stimulating Hormone (FSH) in fasting blood. It counts as in vivo, human.
Text: FSH—Follicle Stimulating Hormone in IU/l (NR 1-6)
as §2

The next series concerns Free Androgen Index. The series is described as follows: Free Androgen Index (FAI = TT/SHBG x 100). It is filed as in vivo, human. An excerpt:
It has been found (Carruthers, M. ‘The Male Menopause, Harpercollins’, London, 1996) that the symptoms associated with this condition arise due to an absolute or relative insufficiency of testosterone, particularly the latter, caused by a reduction in the Free Active Testosterone (FAT); that is a lack of testosterone present in an unbound state in blood plasma. Testosterone in vivo can be bound to sex hormone binding globulin (SHBG) and to a lesser extent, albumin. When bound the testosterone is not freely available to the body or bio-available. One of the best measures of this is the ‘Free Androgen Index’ (FAI). This is calculated by dividing the Total Testosterone (TT) by the ‘sex Hormone Binding Globulin’ (SHBG) and multiplying by a hundred to express it as a percentage. In the healthy, asymptomatic male this is normally in the range 70-100%. Symptoms of the andropause regularly appear when this drops below 50%, except in a few cases where the TT is low and the body appears to compensate by reducing SHBG levels to maintain the FAI.
FAI—Free Androgen Index (NR 70-100%)

The subject of series [3] is Total Testosterone. As to the kind of experiment: Total Testosterone (TT) in fasting blood. It counts as in vivo, human.
Text: TT—Total Testosterone in nmol/l (NR 13-35)
as §2

For another series, the system named is Luteinising Hormone. The series is described as follows: Luteinising Hormone (LH) in fasting blood. It is filed as in vivo, human.
Text: LH—Luteinising Hormone in IU/l (NR 0.7-6)
as §2

The test system of series [4] is Sex Hormone Binding Globulin. The series is described as follows: Sex Hormone Binding Globulin (SHBG) in fasting blood. It is filed as in vivo, human. As to conditions: for Sex Hormone Binding Globulin: Clinical trial, FIG. 4, started above the normal range (20-45 nmol/l) in Danazol groups.
Text: SHBG—Sex Hormone Binding Globulin in nmol/l (NR 20-45)
as §2

Series [5] can be described thus: Adverse effects / tolerability. Conditions: Example 2.
For series [6], the system named is Total Testosterone. As to conditions: cited from earlier work.
For series [7], the system named is Prostate Specific Antigen. The series is described as follows: PSA, biochemistry and haematology profiles during treatment. It is filed as in vivo, human. As to conditions: Example 5; D1 alone, 2 years.
Text: PSA—Total Prostate Specific Antigen in ug/l (NR<4.0)
as §2, §1

The nature of series [8]: Sexual activity (intercourse per month) reported by subjects. It is filed as in vivo, human. As to conditions: Example 5, person; D1 alone, within 3 months; before: once a month.
A further series deals with T1, progesterone receptors (Homo sapiens, UniProt P06401).
T1 sequence (P06401 1-933): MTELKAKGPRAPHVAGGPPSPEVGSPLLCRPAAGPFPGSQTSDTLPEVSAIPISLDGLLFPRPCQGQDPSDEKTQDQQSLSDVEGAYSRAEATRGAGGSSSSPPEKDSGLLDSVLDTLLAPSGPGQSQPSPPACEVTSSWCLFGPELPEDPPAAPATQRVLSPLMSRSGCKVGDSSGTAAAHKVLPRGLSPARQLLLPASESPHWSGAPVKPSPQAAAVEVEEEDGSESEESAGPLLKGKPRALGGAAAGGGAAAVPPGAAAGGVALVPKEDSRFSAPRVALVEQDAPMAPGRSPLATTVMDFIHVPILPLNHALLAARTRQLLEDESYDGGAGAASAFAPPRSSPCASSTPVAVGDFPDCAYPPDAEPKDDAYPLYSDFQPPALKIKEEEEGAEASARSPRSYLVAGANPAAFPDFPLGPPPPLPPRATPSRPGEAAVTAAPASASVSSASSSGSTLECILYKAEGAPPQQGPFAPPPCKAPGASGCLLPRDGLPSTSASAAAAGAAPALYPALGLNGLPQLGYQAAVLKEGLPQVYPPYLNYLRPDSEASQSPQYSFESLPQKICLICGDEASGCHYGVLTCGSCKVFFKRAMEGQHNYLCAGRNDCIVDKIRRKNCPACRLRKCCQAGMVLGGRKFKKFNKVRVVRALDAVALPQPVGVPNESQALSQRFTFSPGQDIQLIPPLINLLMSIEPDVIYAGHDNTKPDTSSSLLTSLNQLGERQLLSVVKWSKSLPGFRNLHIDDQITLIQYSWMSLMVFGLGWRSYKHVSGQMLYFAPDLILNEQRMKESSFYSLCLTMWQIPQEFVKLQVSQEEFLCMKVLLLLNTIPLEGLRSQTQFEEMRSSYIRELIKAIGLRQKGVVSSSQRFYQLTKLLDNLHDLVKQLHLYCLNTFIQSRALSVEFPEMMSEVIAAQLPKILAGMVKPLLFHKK
Conditions: cited from earlier work.

The subject of a further series is oestrogen receptors. As to conditions: cited from earlier work.
The mark [9] stands for this setting: Example 1, R3 increased monthly to R4 then R6.

Take `C[C@H]1CC(=O)C[C@@H]2CC[C@H]3[C@@H]4CC[C@H](O)[C@@]4(C)CC[C@@H]3[C@]21C` [ME, mesterolone]: in [1], the “clinical response / symptoms” value was “poor clinical response”. The DHT entry in the series with dihydrotestosterone was “trebling”.

In the series with Oestradiol (setting [9]), `CCCCCCCCCCC(=O)O[C@H]1CC[C@H]2[C@@H]3CCC4=CC(=O)CC[C@]4(C)[C@H]3CC[C@]12C` [Restandol, testosterone undecanoate] displayed an E2 of 178 pmol/L. This compound yielded an FSH in [2] (setting [9]) of 8.9 IU/l. Besides, the FAI in the series on Free Androgen Index (Example 1, R3 increased monthly to R4 then R6, pre-treatment 38%) amounted to 46%; in the series on Free Androgen Index (Example 3, R6, after 3 months, pre-treatment 35), 19.8%. In series [1] (Example 1, person, R3 increased at monthly intervals to R4 then R6), the relief of symptoms result is reported as “only partial relief of symptoms”. The “clinical response / symptoms” value in [1] is “poor clinical response”. Also, the clinical results in series [1] (Example 6, further reduction of testosterone dosage to the lowest level of R2) is “excellent”. Besides, the TT came to 21.4 nmol/L with Total Testosterone [3] (Example 1, R3 increased monthly to R4 then R6, pre-treatment 27.4) and 22.2 nmol/L in the series with Total Testosterone [3] (Example 3, person, R6, after 3 months, pre-treatment 20). The LH in the series on Luteinising Hormone (Example 1, R3 increased monthly to R4 then R6, pre-treatment 6.1) turned out to be 6.7 IU/l. Further, in series [4], the “Sex Hormone Binding Globulin” value was “reduction in SHBG levels on its own”. The SHBG was determined as 47 nmol/L in [4] (Example 1, R3 increased monthly to R4 then R6, Restandol alone, pre-treatment 73) and 112 nmol/L in series [4] (Example 3, R6, after 3 months, pre-treatment 56.7).

`C[C@]12CC[C@H]3[C@@H](CCC4=CC(=O)CC[C@@]43C)[C@@H]1CC[C@@H]2O` [TI, testosterone]: in series [2] (Example 1, TI, a year later), the FSH entry was “total suppression”. For the same compound, the FAI in the series on Free Androgen Index (Example 1, TI, a year later) was 48%; in the series with Free Androgen Index (Example 3, TI, after 6 months), 32%. The “adverse events of implant” value in [5] is given as “became infected on several occasions, with extrusion of pellets”. Further, the symptoms result in series [1] (Example 1, TI, 3 years after starting treatment) is “symptoms reappeared”. The erection problems entry in series [1] (Example 1, after change to TI) is “rapidly improved”. The “clinical response / symptoms” value in series [1] is recorded as “relieved their symptoms”. Further, in the series with dihydrotestosterone, the DHT entry is on record as “no increase”. Moreover, the TT in the series with Total Testosterone [3] (Example 1, TI, a year later) is 35.6 nmol/L; with Total Testosterone [3] (Example 3, TI, after 6 months), 30.6 nmol/L. Moreover, the LH entry with Luteinising Hormone (Example 1, TI, a year later) is reported as “total suppression”. The mean testosterone levels in the series with Total Testosterone [6] (previous study, samples taken 3 months after implantation) is 45 nmol/L. Besides, the SHBG in [4] (Example 1, TI, a year later) is 74 nmol/L; in series [4] (Example 3, TI alone, successive values during the following 2 years) it was 82.1 nmol/L and 85 nmol/L and 54 nmol/L and 81 nmol/L; in series [4] (Example 3, TI, after 6 months), 95.3 nmol/L.

As to `C#C[C@]1(O)CC[C@H]2[C@@H]3CCC4=Cc5oncc5C[C@]4(C)[C@H]3CC[C@@]21C` [Danazol, [1,2], oxazolo[4,5-b]17alpha-pregna-2,4-dien-20-yn-17beta-ol], the E2 in the series on Oestradiol (Example 5, D1 alone, within 3 months, pre-treatment 120) was less than 44 pmol/L. The FSH result in [2] (Clinical trial, FIG. 6, Danazol added to the testosterone treatment) is given as “greater reductions”; in [2] (Example 5, D1 alone, within 3 months, pre-treatment 5.9) it was 4.5 IU/l. In addition, the “Free Androgen Indices” value in the series on Free Androgen Index (Clinical trial, FIG. 5, Danazol added to the three testosterone treatments) is “markedly increased”. In addition, the FAI with Free Androgen Index (Example 5, D1 alone, within 3 months, pre-treatment 69.4) is 123%. Moreover, the “total Andropause Check List (ACL) score” value in series [1] (Clinical trial, FIG. 1, Danazol 100 mg alternate mornings or daily added to testosterone treatment, up to six 3-6 monthly visits) is on record as “fell equally”. Further, in series [1] (Clinical trial, danazol added to three different forms of testosterone treatment, particularly where SHBG raised), the “efficacy of testosterone treatment for hypogonadal men” value was “greatly increased their efficacy”. In addition, in series [1] (Example 5, D1 alone, for 2 years), the clinical response result was “maintained”. For the same compound, the ACL in series [1] (Example 5, D1 alone, within 3 months, pre-treatment ACL 26) stood at 14. Also, the “effects on PSA, full biochemistry or haematological profile” value in series [7] was “no adverse effects”. Besides, the sexual activity entry in series [8] was “twice a week”. Besides, the “affinity for progesterone receptors” value on progesterone receptors is listed as “low affinity”. In addition, the “interaction with oestrogen receptors” value in the series with oestrogen receptors is recorded as “does not interact with oestrogen receptors to any significant extent”. Also, the TT in the series on Total Testosterone [3] (Example 5, D1 alone, within 3 months, pre-treatment 50) stood at 48 nmol/L. Also, the “LH (gonadotrophins)” value in the series with Luteinising Hormone (Clinical trial, FIG. 7, Danazol added to the testosterone treatment) is “greater reductions”. The LH in the series on Luteinising Hormone (Example 5, D1 alone, within 3 months, pre-treatment 6.0) came to 2.9 IU/l. Moreover, the total plasma testosterone entry in the series on Total Testosterone [6] (previous uses in women and men at doses of 200 to 600 mg) is given as “reduced”. Moreover, the “Sex Hormone Binding Globulin” value in [4] is on record as “uniformly ended at the bottom end of it”. For the same compound, the SHBG is 19 nmol/L and 23 nmol/L and 17 nmol/L in [4] (Example 5, D1 alone, successive values over 2 years, listed as D1); 39 nmol/L in [4] (Example 5, D1 alone, within 3 months, pre-treatment 72).
